In ChEMBL document CHEMBL5465560, “Selectivity Literature for EUbOPEN Chemogenomic Library” (2024):

What was measured:
[1] = target: Serine/threonine-protein kinase 32C (Homo sapiens) (UniProt Q86UX6); experiment: Selectivity interaction (KinomeScan (DiscoverX)) EUB0001079a STK32C; settings: at 1 µM
[2] = target: Fibroblast growth factor receptor 2 (Homo sapiens) (UniProt P21802); experiment: Selectivity interaction (ProQinase) EUB0000171b FGFR2
[3] = target: T1, Ephrin type-B receptor 3 (Homo sapiens) (UniProt P54753); experiment: Selectivity interaction (SelectScreen profiling (Invitrogen)) EUB0000607a EPHB3; settings: at 2 µM
T1 sequence (whole entry): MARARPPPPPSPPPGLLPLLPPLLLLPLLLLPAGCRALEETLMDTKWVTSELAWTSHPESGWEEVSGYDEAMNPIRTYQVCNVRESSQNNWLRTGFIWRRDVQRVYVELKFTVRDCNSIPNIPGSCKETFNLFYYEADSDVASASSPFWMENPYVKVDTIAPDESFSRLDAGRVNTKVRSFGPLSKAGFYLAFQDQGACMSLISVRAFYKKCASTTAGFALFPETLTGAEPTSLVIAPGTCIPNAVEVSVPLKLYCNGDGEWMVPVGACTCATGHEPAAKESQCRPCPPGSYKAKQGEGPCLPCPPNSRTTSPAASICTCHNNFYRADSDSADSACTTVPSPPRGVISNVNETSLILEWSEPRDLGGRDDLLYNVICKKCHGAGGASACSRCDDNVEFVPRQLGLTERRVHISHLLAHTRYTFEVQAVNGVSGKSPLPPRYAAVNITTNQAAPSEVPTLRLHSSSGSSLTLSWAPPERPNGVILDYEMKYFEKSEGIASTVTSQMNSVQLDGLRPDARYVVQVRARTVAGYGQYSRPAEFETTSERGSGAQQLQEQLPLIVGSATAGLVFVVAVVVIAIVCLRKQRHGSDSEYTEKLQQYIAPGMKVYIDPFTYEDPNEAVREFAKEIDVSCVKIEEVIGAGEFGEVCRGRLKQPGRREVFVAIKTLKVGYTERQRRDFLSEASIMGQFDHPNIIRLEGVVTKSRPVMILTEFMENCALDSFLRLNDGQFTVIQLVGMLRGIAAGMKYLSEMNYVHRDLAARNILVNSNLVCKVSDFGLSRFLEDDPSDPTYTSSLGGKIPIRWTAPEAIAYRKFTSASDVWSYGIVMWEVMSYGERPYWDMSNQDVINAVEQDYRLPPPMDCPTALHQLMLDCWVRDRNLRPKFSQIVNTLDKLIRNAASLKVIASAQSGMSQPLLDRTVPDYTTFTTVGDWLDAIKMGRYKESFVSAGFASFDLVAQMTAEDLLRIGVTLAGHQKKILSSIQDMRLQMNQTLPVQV

[4] = target: T2, Serine/threonine-protein kinase Nek2 (Homo sapiens) (UniProt P51955); experiment: Selectivity interaction (KinomeScan (DiscoverX)) EUB0000618a NEK2; settings: at 10 µM
T2 sequence (whole entry): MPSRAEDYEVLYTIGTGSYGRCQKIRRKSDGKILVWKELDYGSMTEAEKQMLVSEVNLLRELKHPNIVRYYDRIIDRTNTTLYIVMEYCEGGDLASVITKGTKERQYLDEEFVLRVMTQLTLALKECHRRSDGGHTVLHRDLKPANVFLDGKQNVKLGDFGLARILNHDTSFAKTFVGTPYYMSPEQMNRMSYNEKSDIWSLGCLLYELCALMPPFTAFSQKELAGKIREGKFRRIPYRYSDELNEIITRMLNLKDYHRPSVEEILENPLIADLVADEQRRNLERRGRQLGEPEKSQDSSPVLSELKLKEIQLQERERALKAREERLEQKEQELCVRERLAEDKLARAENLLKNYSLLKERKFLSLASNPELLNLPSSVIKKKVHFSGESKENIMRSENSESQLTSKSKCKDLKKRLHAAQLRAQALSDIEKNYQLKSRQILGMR

[5] = target: T3, Aurora kinase A (Homo sapiens) (UniProt O14965); experiment: Selectivity interaction (ActivX KiNativ screen (kinase selectivity in THP-1 cell lysates)) EUB0000639a STK6; type: subcellular; settings: lysate, at 0.2 µM
T3 sequence (whole entry): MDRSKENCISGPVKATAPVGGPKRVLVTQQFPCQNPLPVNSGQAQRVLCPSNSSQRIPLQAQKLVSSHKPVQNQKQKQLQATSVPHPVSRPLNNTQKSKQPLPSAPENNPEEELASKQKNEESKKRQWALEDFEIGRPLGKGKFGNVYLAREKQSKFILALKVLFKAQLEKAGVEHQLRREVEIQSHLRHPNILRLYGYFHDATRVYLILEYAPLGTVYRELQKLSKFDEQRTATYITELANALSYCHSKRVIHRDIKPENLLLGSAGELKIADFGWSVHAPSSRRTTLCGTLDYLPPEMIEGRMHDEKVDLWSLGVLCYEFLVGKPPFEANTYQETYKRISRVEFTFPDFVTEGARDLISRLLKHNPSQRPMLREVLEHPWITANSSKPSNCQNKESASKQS

[6] = target: T4, Mitogen-activated protein kinase kinase kinase 3 (Homo sapiens) (UniProt Q99759); experiment: Selectivity interaction (ActivX KiNativ screen (kinase selectivity in THP-1 cell lysates)) EUB0000639a MAP3K3; type: subcellular; settings: lysate
T4 sequence (whole entry): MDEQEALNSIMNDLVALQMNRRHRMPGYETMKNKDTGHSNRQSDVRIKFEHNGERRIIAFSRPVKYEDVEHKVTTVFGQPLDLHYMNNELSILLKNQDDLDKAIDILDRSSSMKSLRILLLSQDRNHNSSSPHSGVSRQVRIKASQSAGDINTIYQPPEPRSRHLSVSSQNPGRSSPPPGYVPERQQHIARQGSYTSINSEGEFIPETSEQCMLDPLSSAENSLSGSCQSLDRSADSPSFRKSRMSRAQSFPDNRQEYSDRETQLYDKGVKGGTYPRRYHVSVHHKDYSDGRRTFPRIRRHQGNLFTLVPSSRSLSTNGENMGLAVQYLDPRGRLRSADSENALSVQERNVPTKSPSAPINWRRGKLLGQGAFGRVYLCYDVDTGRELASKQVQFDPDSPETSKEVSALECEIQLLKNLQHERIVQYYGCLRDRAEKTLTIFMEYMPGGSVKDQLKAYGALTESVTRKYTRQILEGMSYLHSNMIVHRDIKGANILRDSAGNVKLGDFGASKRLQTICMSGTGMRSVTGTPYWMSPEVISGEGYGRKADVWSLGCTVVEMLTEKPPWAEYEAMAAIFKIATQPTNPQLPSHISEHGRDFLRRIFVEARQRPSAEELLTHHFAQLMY

[7] = target: Cyclin-dependent kinase 17 (Homo sapiens) (UniProt Q00537); experiment: Selectivity interaction (ActivX KiNativ screen (kinase selectivity in THP-1 cell lysates)) EUB0000639a CDK17; type: subcellular; settings: lysate, at 0.01 µM
[8] = target: Serine/threonine-protein kinase 35 (Homo sapiens) (UniProt Q8TDR2); experiment: Selectivity interaction (KinomeScan (DiscoverX)) EUB0000655a STK35; settings: at 10 µM
Sequence of Serine/threonine-protein kinase 35 (Homo sapiens) (Q8TDR2 whole entry): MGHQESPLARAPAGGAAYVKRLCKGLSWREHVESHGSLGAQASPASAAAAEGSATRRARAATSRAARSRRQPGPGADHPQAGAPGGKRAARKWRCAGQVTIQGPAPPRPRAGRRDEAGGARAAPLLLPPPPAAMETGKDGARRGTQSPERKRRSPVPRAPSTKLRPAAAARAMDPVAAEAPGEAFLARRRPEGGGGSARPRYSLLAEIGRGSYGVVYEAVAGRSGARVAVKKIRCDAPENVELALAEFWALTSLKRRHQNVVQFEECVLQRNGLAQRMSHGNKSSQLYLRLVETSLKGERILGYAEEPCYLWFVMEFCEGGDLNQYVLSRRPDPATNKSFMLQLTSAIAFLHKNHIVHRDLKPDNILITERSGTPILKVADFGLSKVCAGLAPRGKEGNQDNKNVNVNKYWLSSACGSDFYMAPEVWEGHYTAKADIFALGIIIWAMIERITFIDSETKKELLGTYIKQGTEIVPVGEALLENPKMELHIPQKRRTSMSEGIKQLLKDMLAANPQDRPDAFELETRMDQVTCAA

Sequence of Fibroblast growth factor receptor 2 (Homo sapiens) (P21802 22-821 limits assumed): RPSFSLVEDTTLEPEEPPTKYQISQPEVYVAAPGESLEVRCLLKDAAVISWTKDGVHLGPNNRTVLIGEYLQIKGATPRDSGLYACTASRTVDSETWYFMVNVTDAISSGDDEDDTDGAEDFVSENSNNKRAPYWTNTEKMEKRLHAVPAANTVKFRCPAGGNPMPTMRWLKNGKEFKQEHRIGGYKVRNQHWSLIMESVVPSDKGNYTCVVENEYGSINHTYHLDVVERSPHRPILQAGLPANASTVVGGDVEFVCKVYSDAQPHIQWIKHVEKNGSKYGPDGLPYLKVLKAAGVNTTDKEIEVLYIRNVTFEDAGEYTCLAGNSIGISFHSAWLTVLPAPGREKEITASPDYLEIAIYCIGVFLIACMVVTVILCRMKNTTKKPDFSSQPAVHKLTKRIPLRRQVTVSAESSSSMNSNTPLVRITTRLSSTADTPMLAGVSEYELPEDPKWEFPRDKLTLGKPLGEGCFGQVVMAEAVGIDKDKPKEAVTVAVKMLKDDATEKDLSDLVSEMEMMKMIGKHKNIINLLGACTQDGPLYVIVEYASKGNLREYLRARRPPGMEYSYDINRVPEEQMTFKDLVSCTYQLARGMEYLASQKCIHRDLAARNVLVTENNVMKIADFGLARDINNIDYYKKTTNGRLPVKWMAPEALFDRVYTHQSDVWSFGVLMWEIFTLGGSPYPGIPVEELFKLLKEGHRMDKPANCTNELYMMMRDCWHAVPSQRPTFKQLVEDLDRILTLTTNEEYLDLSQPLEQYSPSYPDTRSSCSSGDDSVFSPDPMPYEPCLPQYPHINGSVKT
Sequence of Cyclin-dependent kinase 17 (Homo sapiens) (Q00537 whole entry, looked up): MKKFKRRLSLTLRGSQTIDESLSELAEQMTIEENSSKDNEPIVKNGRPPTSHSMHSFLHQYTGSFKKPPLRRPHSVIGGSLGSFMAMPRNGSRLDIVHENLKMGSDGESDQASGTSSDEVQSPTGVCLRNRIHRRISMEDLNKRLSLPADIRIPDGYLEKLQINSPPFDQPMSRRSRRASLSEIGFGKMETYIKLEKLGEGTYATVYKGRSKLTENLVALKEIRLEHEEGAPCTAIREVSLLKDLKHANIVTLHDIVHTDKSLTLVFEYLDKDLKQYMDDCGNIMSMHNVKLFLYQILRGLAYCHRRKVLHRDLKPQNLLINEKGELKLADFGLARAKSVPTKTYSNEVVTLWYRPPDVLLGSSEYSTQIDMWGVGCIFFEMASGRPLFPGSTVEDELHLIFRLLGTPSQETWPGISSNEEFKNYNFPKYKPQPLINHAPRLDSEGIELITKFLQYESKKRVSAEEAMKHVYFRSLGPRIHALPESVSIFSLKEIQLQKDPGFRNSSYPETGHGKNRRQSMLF
Sequence of Serine/threonine-protein kinase 32C (Homo sapiens) (Q86UX6 whole entry): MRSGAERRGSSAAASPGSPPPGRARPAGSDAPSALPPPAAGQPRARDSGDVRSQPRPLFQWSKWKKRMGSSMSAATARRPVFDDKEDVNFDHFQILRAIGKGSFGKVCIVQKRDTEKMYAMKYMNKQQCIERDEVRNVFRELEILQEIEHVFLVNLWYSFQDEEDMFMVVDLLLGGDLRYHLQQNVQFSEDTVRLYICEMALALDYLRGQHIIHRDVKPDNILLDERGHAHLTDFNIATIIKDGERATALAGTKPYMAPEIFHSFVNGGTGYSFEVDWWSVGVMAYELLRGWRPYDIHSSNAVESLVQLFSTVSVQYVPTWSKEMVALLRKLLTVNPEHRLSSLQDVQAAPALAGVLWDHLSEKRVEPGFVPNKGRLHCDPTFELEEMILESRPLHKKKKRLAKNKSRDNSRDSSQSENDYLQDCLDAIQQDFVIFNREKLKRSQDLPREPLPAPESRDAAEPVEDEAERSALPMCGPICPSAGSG

In the case of `Nc1cnc(N2CCc3cc(S(=O)(=O)Nc4c(F)cc(Cl)cc4F)cc(N4CCCC4=O)c32)nc1` [TP-020n], the % of control [1] is reported as 100%.

`C=CC(=O)Nc1cccc(C(=O)Nc2ccc(Nc3cc(-c4[nH]c(SC)nc4C)ccn3)cc2)c1` was tested, and the % of control ([2]; at 1 µM) was 105% and the % of control ([2]; at 5 µM) was 87%.

In the case of `CNC(=O)Nc1ccc(-c2nc(N3CC4CCC(C3)O4)c3cnn(C4CCC5(CC4)OCCO5)c3n2)cc1`, the % of inhibition [3] is reported as 3%.

Molecule `O[C@H]1CC[C@H](Nc2ncc3nc(Nc4c(F)cc(F)cc4F)n([C@H]4CCOC4)c3n2)CC1` has a % of control [4] of 100%.

Work on `CC[C@@H]1[C@H](F)C(=O)N[C@@H]1COc1nccc2cc(C(N)=O)c(OC)cc12` [ZIMLOVISERTIB] yielded a % of inhibition [5] of 20.9%, a % of inhibition ([6]; at 0.01 µM) of 8.7% and a % of inhibition ([6]; at 0.04 µM) of 1.8%. It also gave a % of inhibition ([6]; at 0.2 µM) of -1.4%, a % of inhibition ([6]; at 1 µM) of -7.6% and a % of inhibition ([6]; at 5 µM) of 12.6%. The % of inhibition [7] was 16.3%.

`CN(C)CCOc1ccc(-c2nc(-c3ccncc3)c(-c3ccc4c(c3)CC/C4=N\O)[nH]2)cc1` showed a % of control [8] of 100%.
